pIC50: −log10 of the molar value.

One assay addresses Histone deacetylase 3 (Homo sapiens, UniProt O15379). Kind of assay: Inhibition of C-terminal His-tagged full length human recombinant HDAC3 co-expressed with NcoR2 in baculovirus expression system using fluorogenic acetylated peptide as substrate preincubated with enzyme for 10 mins prior to substrate addition measured after 60 mins by fluorescence analysis.
Another assay concerns the target Histone deacetylase 2 (Homo sapiens, UniProt Q92769). Kind of assay: Inhibition of C-terminal His-tagged full length human recombinant HDAC2 expressed in baculovirus expression system using fluorogenic acetylated peptide as substrate preincubated with enzyme for 10 mins prior to substrate addition measured after 60 mins by fluorescence analysis.
Another assay deals with Histone deacetylase 9 (Homo sapiens, UniProt Q9UKV0). Kind of assay: Inhibition of C-terminal His-tagged human recombinant HDAC9 (amino acids 604- 1066) expressed in baculovirus expression system using fluorogenic acetylated peptide as substrate preincubated with enzyme for 10 mins prior to substrate addition measured after 60 mins by fluorescence analysis.
Sequence of Histone deacetylase 9 (Q9UKV0 whole entry, the tested form may be a part): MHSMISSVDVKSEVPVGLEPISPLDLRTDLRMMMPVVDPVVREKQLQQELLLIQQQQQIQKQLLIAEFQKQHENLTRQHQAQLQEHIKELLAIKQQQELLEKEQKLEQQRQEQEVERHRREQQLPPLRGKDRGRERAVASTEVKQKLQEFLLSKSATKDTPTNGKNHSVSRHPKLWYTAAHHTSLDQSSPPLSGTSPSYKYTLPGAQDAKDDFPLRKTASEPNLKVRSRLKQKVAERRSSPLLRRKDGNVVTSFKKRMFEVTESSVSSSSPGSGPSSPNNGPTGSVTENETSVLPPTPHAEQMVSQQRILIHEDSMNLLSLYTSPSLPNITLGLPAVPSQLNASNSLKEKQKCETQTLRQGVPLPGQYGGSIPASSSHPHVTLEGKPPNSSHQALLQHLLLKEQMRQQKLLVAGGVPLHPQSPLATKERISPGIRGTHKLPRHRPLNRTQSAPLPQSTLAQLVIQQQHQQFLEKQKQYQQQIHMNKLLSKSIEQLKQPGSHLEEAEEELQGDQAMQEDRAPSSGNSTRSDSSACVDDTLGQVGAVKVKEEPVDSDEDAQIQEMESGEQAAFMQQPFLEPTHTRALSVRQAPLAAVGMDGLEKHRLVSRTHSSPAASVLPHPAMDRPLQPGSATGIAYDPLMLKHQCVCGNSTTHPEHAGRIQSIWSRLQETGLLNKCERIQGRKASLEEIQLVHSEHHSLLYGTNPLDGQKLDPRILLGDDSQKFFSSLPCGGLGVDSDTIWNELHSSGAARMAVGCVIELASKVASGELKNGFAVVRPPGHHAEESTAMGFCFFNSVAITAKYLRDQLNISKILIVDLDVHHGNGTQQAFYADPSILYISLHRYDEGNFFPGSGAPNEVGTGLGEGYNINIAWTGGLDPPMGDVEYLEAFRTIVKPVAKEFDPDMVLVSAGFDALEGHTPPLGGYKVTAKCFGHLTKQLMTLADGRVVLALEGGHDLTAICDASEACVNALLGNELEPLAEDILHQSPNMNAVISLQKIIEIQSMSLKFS
The target in the next assay is Histone deacetylase 1 (Homo sapiens, UniProt Q13547). In words: Inhibition of C-terminal His-tagged and C-terminal FLAG-tagged full length human recombinant HDAC1 expressed in baculovirus expression system using fluorogenic acetylated peptide as substrate preincubated with enzyme for 10 mins prior to substrate addition measured after 60 mins by fluorescence analysis.
Sequence of Histone deacetylase 1 (Q13547 whole entry): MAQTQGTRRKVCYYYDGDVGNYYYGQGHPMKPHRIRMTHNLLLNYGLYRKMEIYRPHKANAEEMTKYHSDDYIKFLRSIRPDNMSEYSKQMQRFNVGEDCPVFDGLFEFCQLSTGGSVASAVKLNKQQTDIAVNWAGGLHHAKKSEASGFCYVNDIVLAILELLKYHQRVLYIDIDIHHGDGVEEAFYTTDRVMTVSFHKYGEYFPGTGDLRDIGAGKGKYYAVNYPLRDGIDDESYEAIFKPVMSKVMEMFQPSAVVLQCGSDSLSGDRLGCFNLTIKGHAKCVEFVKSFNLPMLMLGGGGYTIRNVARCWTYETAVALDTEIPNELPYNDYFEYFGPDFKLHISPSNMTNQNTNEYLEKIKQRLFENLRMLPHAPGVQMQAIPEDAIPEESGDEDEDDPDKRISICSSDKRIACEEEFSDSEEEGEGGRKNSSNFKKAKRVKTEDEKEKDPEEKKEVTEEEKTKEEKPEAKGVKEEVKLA

Sequence of Histone deacetylase 2 (Q92769 whole entry, the tested form may be a part): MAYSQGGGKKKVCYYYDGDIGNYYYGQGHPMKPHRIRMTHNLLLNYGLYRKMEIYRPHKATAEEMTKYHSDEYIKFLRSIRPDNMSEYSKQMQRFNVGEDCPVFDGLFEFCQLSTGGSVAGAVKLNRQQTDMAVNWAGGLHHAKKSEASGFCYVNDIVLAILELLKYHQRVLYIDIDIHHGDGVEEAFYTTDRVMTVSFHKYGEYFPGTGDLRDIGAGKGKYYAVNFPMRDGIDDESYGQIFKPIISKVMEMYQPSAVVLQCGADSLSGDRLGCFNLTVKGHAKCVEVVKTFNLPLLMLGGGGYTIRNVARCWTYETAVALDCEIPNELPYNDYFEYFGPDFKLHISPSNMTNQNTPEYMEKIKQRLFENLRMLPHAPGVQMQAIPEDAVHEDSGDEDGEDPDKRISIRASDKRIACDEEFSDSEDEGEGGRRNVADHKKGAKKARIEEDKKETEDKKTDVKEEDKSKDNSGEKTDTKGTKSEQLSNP
Sequence of Histone deacetylase 3 (O15379 whole entry): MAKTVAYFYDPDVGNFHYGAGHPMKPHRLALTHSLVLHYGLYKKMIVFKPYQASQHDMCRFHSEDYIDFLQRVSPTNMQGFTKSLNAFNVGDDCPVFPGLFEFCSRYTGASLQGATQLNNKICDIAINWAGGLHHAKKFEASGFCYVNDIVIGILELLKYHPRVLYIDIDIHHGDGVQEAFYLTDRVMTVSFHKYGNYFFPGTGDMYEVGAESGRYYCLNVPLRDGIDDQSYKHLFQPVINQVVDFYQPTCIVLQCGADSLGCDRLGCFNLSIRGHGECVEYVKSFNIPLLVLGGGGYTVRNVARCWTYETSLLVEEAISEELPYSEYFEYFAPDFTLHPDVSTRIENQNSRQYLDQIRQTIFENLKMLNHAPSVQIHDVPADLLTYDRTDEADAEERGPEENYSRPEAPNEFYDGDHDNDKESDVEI

With `CCCCCCCC(=O)SCC/C=C/[C@@H]1CC(=O)NCc2nc(cs2)-c2nnn(n2)CC(=O)N[C@@H](C(C)C)C(=O)O1`, the pIC50 on Histone deacetylase 3 was 5.40; at Histone deacetylase 2, 4.51; on Histone deacetylase 9 it was under 4.00; at Histone deacetylase 1, 5.13.

Turning to `CCCCCCCC(=O)SCC/C=C/[C@@H]1CC(=O)NCc2nc(cs2)-c2cn(nn2)CC(=O)N[C@@H](C(C)C)C(=O)O1`, the pIC50 on Histone deacetylase 3 is 4.85; at Histone deacetylase 2 it was 4.49; at Histone deacetylase 9 it was 4.20; at Histone deacetylase 1, 4.75.

For the compound `CC(C)[C@@H]1NC(=O)Cn2cc(nn2)-c2csc(n2)CNC(=O)C[C@@H](/C=C/CCS)OC1=O`, the pIC50 at Histone deacetylase 3 was 6.05; at Histone deacetylase 2 it was 5.41; on Histone deacetylase 9 it was 4.49; on Histone deacetylase 1, 5.63.

Regarding `CC(C)[C@@H]1NC(=O)Cn2nnnc2-c2csc(n2)CNC(=O)C[C@@H](/C=C/CCS)OC1=O`, the negative logarithm of the IC50 (pIC50) on Histone deacetylase 3 is 6.19; at Histone deacetylase 2, 5.49; at Histone deacetylase 9, 4.79; on Histone deacetylase 1 it was 5.78.

Regarding `CCCCCCCC(=O)SCC/C=C/[C@@H]1CC(=O)NCc2nc(cs2)C2=N[C@@](C)(CS2)C(=O)N[C@@H](C(C)C)C(=O)O1` [LARGAZOLE], the pIC50 on Histone deacetylase 2 is 5.76; at Histone deacetylase 9, 5.08; at Histone deacetylase 1, 6.84.

As to `CC(C)[C@@H]1NC(=O)Cn2nnc(n2)-c2csc(n2)CNC(=O)C[C@@H](/C=C/CCS)OC1=O`, the pIC50 was 7.51 on Histone deacetylase 3, 6.65 on Histone deacetylase 2, 4.46 on Histone deacetylase 9 and 7.00 at Histone deacetylase 1.

As for `CCCCCCCC(=O)SCC/C=C/[C@@H]1CC(=O)NCc2nc(cs2)-c2nnnn2CC(=O)N[C@@H](C(C)C)C(=O)O1`, the pIC50 is 4.98 on Histone deacetylase 3, 4.60 on Histone deacetylase 2 and 4.74 at Histone deacetylase 9.
